Results as given in ChEMBL document CHEMBL1147477, “(4-Carboxamido)phenylalanine is a surrogate for tyrosine in opioid receptor peptide ligands” (Bioorg Med Chem Lett, 2004).

Columns and labels:
Format in all cases: toxicity, cell-based
[1] = Lethal dose against HL-60 human peripheral blood cancer cell line; conditions: HL-60 cells, read-out: LD50 (the source's name)
[2] = Lethal dose against HeLa human cervix cancer cell line; conditions: HeLa cells, read-out: LD50 (the source's name)
[3] = Lethal dose against NUGC-3 human stomach cancer cell line; conditions: NUGC-3 cells, read-out: LD50 (the source's name)
[4] = Lethal dose against human […] HL- 60 cell line; conditions: HL-60 cells, read-out: LD50 (the source's name)

Row | Compound | CC50 [1] | CC50 [2] | CC50 [3] | CC50 [4]
1 | CC(C)=C1Oc2c(ccc3c2C(O)OC(C)C3)C1=O (centres undefined) | 39 µM | 47 µM | 49 µM | –
2 | CC(C)=C1Oc2c(ccc3cc(C)ncc23)C1=O | – | – | – | 39 µM
